Test results reported in patent publication US20230190950A1, “COMPOSITIONS AND METHODS FOR THE TREATMENT OF BACTERIAL INFECTIONS” (Cidara Therapeutics, Inc., priority 2017, published 2023).

Tests used:
Settings in all cases: 40% blood, 90 min
PA 7874 COL^R = experiment: MBC in human blood, PA 7874; type: cell-based, Pseudomonas aeruginosa
Procedure: (§1) Overnight stationary-phase cultures were centrifuged at 3,500×g for 10 min at room temperature and resuspended in 1×PBS to an optical density at 600 nm (OD600) of 0.4 (1×10^8 colony forming units [CFU]/mL) in RPMI with L-glutamine and phenol red (Life Technologies). […] MBC was defined as the minimum conjugate concentration required for complete bacterial clearance. An untreated growth control (40% blood, 0 μg/mL conjugate) was included in all assays.
(§2) Overnight stationary-phase cultures were centrifuged at 3,500×g for 10 min at room temperature and resuspended in 1×PBS to an optical density at 600 nm (OD600) of 0.4 (1×10^8 colony forming units [CFU]/ml) in RPMI with L-glutamine and phenol red (Life Technologies). Bacteria were diluted 1:25 in RPMI (4×10^6 CFU/ml) and 10 ul added to wells of a non-binding 96-well plate (Corning 3641) containing 80 ul of 50% hirudin anti-coagulated blood (complement active) in RPMI. […] MBC was defined as the minimum conjugate concentration required for bacterial clearance (Table 8A and Table 8B). An untreated growth control (40% blood, 0 ug/ml conjugate) was included in all assays as a growth comparator.

EC 25922 COL^S = experiment: MBC in human blood, EC 25922; type: cell-based, Escherichia coli
Procedure: as §1, §2

AB 5075 COL^S = experiment: MBC in human blood, AB 5075; type: cell-based, Acinetobacter baumannii
Procedure: as §1, §2

PA 01 COL^S = experiment: MBC in human blood, PA 01; type: cell-based, Pseudomonas aeruginosa
Procedure: as §1, §2

hIgG1 Fc: "h-IgG1 Fc (SEQ ID NO: 4)", "MW=54,731 Da"; the unconjugated Fc used as starting protein
>128 µg/mL: MBC in human hirudin-anticoagulated blood, P. aeruginosa PA7874 (PA 7874 COL^R) | MBC in human hirudin-anticoagulated blood, E. coli ATCC 25922 (EC 25922 COL^S) | MBC in human hirudin-anticoagulated blood, A. baumannii AB5075 (AB 5075 COL^S) | MBC in human hirudin-anticoagulated blood, P. aeruginosa PAO1 (PA 01 COL^S)
